# Measured values published in patent publication US6224857A, “Pharmaceutical preparations comprised of salts of hyaluronic acid with local anaesthetics” (Fidia, S.p.A., priority 1996, dated 2001).
# Counter-ions that a name gives are not always drawn.
# Tested on: rabbit cornea
# Assay: Corneal anaesthesia in rabbit (blinking reflex, Camougis and Tankman method)
# Type: in vivo
# Details: rabbit eye
# Procedure: […] of solution was instilled in the conjunctival sac. The blinking reflex, tested with a bristle, was measured before instillation and then every 5-10 minutes until one hour after treatment. At each test time the degree of anaesthesia was expressed by means of a score of up to 10 given by the number of stimulations before the eye-blink reflex was obtained. The overall anaesthetic effect for each compound was then quantified by the area under curve (AUC) of the degree of anaesthesia over time.
# [1] = Table 1, dose 0.125% (as hydrochloride), reference Bupivacaine HCl = 100
# [2] = Table 5, dose 0.125%, degree of salification, 500-730 kDa, reference Bupivacaine HCl = 100
compound,measurement,setting,value
"CN(C)CCCOc1nn(Cc2ccccc2)c2ccccc12 [Benzydamine HCl, benzydamine hydrochloride]",Anaesthesia (AUC),"Table 1, dose 0.125% (as hydrochloride), reference Benzydamine HCl = 100",100
same,Anaesthesia (AUC),"Table 6, dose 0.125%, degree of salification, 50-350 kDa, reference Benzydamine HCl = 100",100
"CCCCN1CCCCC1C(=O)Nc1c(C)cccc1C (stereo not drawn) [Bupivacaine HCl, bupivacaine hydrochloride]",Anaesthesia (AUC),[1],100
same,Anaesthesia (AUC),"Table 3, first group (50% Na salts), dose 0.125%, reference Bupivacaine HCl = 100",100
same,Anaesthesia (AUC),"Table 3, second group (50% Ca salts), dose 0.125%, reference Bupivacaine HCl = 100",100
same,Anaesthesia (AUC),[2],100
stoichiometrically neutral salt of hyaluronic acid with bupivacaine [FID 60.2082],Anaesthesia (AUC),[1],166
same,Anaesthesia (AUC),"Table 2, dose 0.125%, FID 60.20XX (50-350 kDa), reference FID 60.2082 = 100",100
stoichiometrically neutral salt of hyaluronic acid with bupivacaine [FID 61.2082],Anaesthesia (AUC),"Table 2, dose 0.125%, FID 61.20XX (500-730 kDa), reference FID 61.2082 = 100",100
same,Anaesthesia (AUC),[2],314
stoichiometrically neutral salt of hyaluronic acid with bupivacaine [FID 62.2082],Anaesthesia (AUC),"Table 2, dose 0.125%, FID 62.20XX (750-1200 kDa), reference FID 62.2082 = 100",100
stoichiometrically neutral salt of hyaluronic acid with lidocaine [FID 60.2070],Anaesthesia (AUC),"Table 1, dose 1% (as hydrochloride), reference Lidocaine HCl = 100",167
